Assay results reported in the supplement of paper PMC10307832.

Legend:
Test in all cases: relative viability (nuclei count vs DMSO), 5 days (fraction); higher = more cells survive
[1] = compound: COc1cc(Nc2ncc(F)c(Nc3ccc4c(n3)NC(=O)C(C)(C)O4)n2)cc(OC)c1OC [R406] + CC(C)C[C@H](NC(=O)[C@H](Cc1ccccc1)NC(=O)c1cnccn1)B(O)O [Bortezomib] (partner 0.002 µM)
Outline: (§1)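 Relative viability divides the nuclei count in treated wells by that in vehicle wells. Lung cancer cell lines were seeded in 1536-well plates, dosed by pin tool the next day, and fixed and stained after 5 days in one step with final 0.05% Triton X-100, 1% formaldehyde and 1 ug/ml Hoechst. Dosing was a single drug or a fixed anchor-drug dose plus five library-drug doses (not always all listed) in √10 steps, and values are medians of duplicate plates imaged at 4×.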

[2] = compound: COc1cc(Nc2ncc(F)c(Nc3ccc4c(n3)NC(=O)C(C)(C)O4)n2)cc(OC)c1OC [R406] + Cc1nc(Nc2ncc(C(=O)Nc3c(C)cccc3Cl)s2)cc(N2CCN(CCO)CC2)n1 [Dasatinib] (partner 0.075 µM)
Outline: as §1

[3] = compound: O=C(/C=C/c1cccnc1)NCCCCC1CCN(C(=O)c2ccccc2)CC1 [Daporinad] + CC(=O)Nc1cccc(-n2c(=O)n(C3CC3)c(=O)c3c(Nc4ccc(I)cc4F)n(C)c(=O)c(C)c32)c1 [Trametinib] (partner 0.02 µM)
Outline: as §1

[4] = compound: O=C(/C=C/c1cccnc1)NCCCCC1CCN(C(=O)c2ccccc2)CC1 [Daporinad] + COc1cc2c(Oc3ccc(NC(=O)C4(C(=O)Nc5ccc(F)cc5)CC4)cc3F)ccnc2cc1OCCCN1CCOCC1 [Foretinib] (partner 0.25 µM)
Outline: as §1

Cell Line | relative viability ([1]; first compound 0.08 µM) | relative viability ([1]; first compound 0.253 µM) | relative viability ([1]; first compound 0.8 µM) | relative viability ([1]; first compound 2.53 µM) | relative viability ([1]; first compound 8 µM) | relative viability ([2]; first compound 0.08 µM) | relative viability ([2]; first compound 0.253 µM) | relative viability ([2]; first compound 0.8 µM) | relative viability ([2]; first compound 2.53 µM) | relative viability ([2]; first compound 8 µM) | relative viability ([3]; first compound 0.0005 µM) | relative viability ([3]; first compound 0.001581 µM) | relative viability ([3]; first compound 0.005 µM) | relative viability ([3]; first compound 0.01581 µM) | relative viability ([4]; first compound 0.0005 µM) | relative viability ([4]; first compound 0.001581 µM) | relative viability ([4]; first compound 0.005 µM) | relative viability ([4]; first compound 0.01581 µM)
NCI-H1792 | 0.981 | 0.909 | 1.04 | 0.851 | 0.861 | 0.781 | 0.906 | 0.871 | 0.551 | 0.401 | 0.412 | 0.471 | 0.421 | 0.453 | – | – | – | –
NCI-H522 | – | – | – | – | – | 0.78 | 0.883 | 0.869 | 0.725 | 0.722 | 0.906 | 0.753 | 0.67 | 0.835 | – | – | – | –
NCI-H1299 | 1 | 1.02 | 1.02 | 1.04 | 1.04 | – | – | – | – | – | – | – | – | – | 1.12 | 1.08 | 1.14 | 1.04
SW 900 | – | – | – | – | – | 0.592 | 0.384 | 0.79 | 0.23 | 0.0973 | 0.668 | – | 1.03 | 0.663 | 0.881 | 0.765 | 0.885 | 0.709
NCI-H2170 | – | – | – | – | – | 0.481 | 0.579 | 0.613 | 0.267 | 0.324 | 0.789 | 0.943 | 0.84 | 0.948 | 0.764 | 1.03 | 1.05 | 1.01
NCI-H358 | – | – | – | – | – | 0.165 | 0.171 | 0.113 | 0.143 | 0.132 | 0.135 | 0.152 | 0.15 | 0.18 | 0.689 | 0.898 | 0.827 | 0.545
SK-MES-1 | – | – | – | – | – | 0.397 | 0.371 | 0.363 | 0.137 | 0.136 | 0.561 | 0.524 | 0.613 | 0.743 | 0.837 | 1.19 | 0.916 | 1.21
LK-2 | – | – | – | – | – | 0.26 | 0.303 | 0.285 | 0.346 | 0.201 | 0.783 | 0.795 | 0.764 | 0.283 | 1.08 | 1.54 | 1.29 | 0.308
NCI-H1395 | – | – | – | – | – | 0.441 | 0.444 | 0.434 | 0.399 | 0.356 | 1.04 | 1.04 | 1.14 | 1.06 | 1.08 | 0.954 | 1.01 | 1.15
A549 | – | – | – | – | – | – | – | – | – | – | – | – | – | – | 1.03 | 0.964 | 0.887 | 0.867
NCI-H1793 | – | – | – | – | – | 0.407 | 0.466 | 0.423 | 0.184 | 0.164 | 0.362 | 0.453 | 0.525 | 0.389 | 0.738 | 0.868 | 0.956 | 0.807
NCI-H1563 | 0.764 | 1 | 0.873 | 0.523 | 0.574 | 0.438 | 0.507 | 0.448 | 0.473 | 0.376 | – | – | – | – | 0.893 | 0.972 | 0.999 | 0.86
ABC-1 | 0.399 | 0.321 | 0.317 | 0.251 | 0.265 | 0.535 | 0.54 | 0.415 | 0.363 | 0.298 | – | – | – | – | 1.09 | 1.01 | 1.01 | 0.662
